# Results from patent US8759364B2, “Methods of treating bone mass diseases” (The Trustees of Columbia University in the City of New York, priority 2008, dated 2014).
# Entries after “also recorded” stand apart in the source; their conditions may differ.
# Assays:
# Lrp5−/− mice = assay: pCPA treatment of WT and Lrp5−/− mice (bone histomorphometry, serum serotonin, TPH1/TPH2 expression); format: in vivo
# Experimental: Consistent with the conclusion that the increase in serum serotonin level is responsible fully or partly for the bone phenotype of the Lrp5−/− mice is the discovery that pCPA, a serotonin synthesis inhibitor (Eldridge et al., 1981, Ann. Rev. Physiol. 43:121-135), prevented the appearance of the Lrp5−/− bone phenotype by decreasing serotonin production. WT and Lrp5−/− mice were treated with 300 mg/kg pCPA intraperitoneally three times per week, from 3 weeks to 12 weeks of age (FIG. 7A) and the changes in serum serotonin levels, TPH1 expression in gut and TPH2 expression in brain stem were analyzed. Bone histomorphometry was also performed. […] This rescue of the Lrp5−/− phenotype was achieved by normalization of the gut TPH1 mRNA and of serum serotonin levels (FIGS. 7C and 7D).
# Generation of Lrp5−/− (Kato et al., 2002, J. Cell Biol. 157:303-314) β-cateninfloxed/floxed (Glass et al., 2005, Dev. Cell 8:751-764), α1(I)collagen-cre transgenic (Dacquin et al., 2002, Dev. Dyn. 224:245-251) and Htt−/− (Ansorge et al., 2008, J. Neurosci. 28:199-207) mice were as described previously. Lrp5+/−;Htt+/− double heterozygous mice were generated by crossing Lrp5+/− and Htt+/− mice. Three week-old Wt or Lrp5−/− mice were administered pCPA on alternate days for 9 weeks by i.p. All animal protocols were approved by the Animal Care Committees of Columbia University.
# Static histomorphometry measurements were performed as previously described in accordance with standard nomenclature, using the Osteomeasure Analysis System (Osteometrics, Inc) (Ducy et al., 2000, Cell 100:197-207). Four to 9 animals were assigned per group.
# Serotonin serum levels were quantified using immunoassay kits from Fitzgerald (Serotonin) and serotonin levels in the different regions of the brain were quantified by HPLC method as described previously (Mann et al., 1992, Arch. Gen. Psychiatry 49:442-446).
# serotonin in the brain = assay: Brain serotonin and blood brain barrier crossing after oral feeding; format: in vivo, mice
# Experimental: (§1) The ability of selective TPH1 inhibitor CBMIDA to reduce peripheral serotonin measured in serum was tested. Either 250 or 500 mg/kg doses of CBMIDA were administered orally twice in 20 hours to 4 week old mice, 4-5 mice per group. As a control, some mice were untreated and some received 250 mg/kg pCPA orally. […] CBMIDA has been reported to be an EDTA analog that increases osteoid volume in beagle dogs and induces proliferation of rat calvarial-derived osteoblasts in vitro (Xie, et al., Bioorganic & Medicinal Chemistry Letters 15 (2005) 3267-3270, incorporated herein by reference in its entirety).
# (§2) Before the experiments, animals were separated into individual cages one day prior to the experiment. Compounds were fed orally (gavage) to the mouse, calculated according to the weight of the mouse, twice a day at 1700 h and at 1100 h. […] This route created two potential barriers for the compound to reach the brain. […] Control animals received the same volume of vehicle. Blood was collected through heart puncture on isofluorane-anaesthesized animals and allowed to clot for 5 minutes on ice. The serum was separated, snap chilled in liquid nitrogen and frozen at −80° C. till analyzed. Brainstems from all the animals were collected and processed for brain serotonin measurement through HPLC.
# peripheral serotonin = assay: Effect of oral CBMIDA on peripheral serotonin production in mice (serum serotonin ELISA), Example 1; format: in vivo
# Experimental: as §1
# One month old C57Bl/6 inbred male mice, weighing 15-16 g were used in the experiments. Animals were housed under 12 h light/12 h dark conditions in a room with controlled temperature (22° C.) and humidity (60%). Mice had ad libitum access to food and water, and were used after a minimum of 4 days of acclimatization to the housing conditions. All experiments were conducted following Columbia University Guidelines for the Animal Use and Care of laboratory mice.
# as §2
# The Serotonin ELISA kit obtained from the Fitzgerald company was used to measure derivatized serotonin from serum. Derivatization is part of the sample preparation. Serotonin present in the serum was first quantitatively acylated into N-Acylserotonin using the acylation reagent. The principle of the assay is based on competitive ELISA, wherein serotonin that is bound to the solid phase of the plate and the N-acylserotonin compete for the fixed number of antiserum binding sites. When the reaction is in equilibrium, free antigen and free antigen-antiserum complexes are removed by washing.
# The antibody bound to the solid phase serotonin is then detected using antirabbit/peroxidase. The substrate TMB/Peroxidase reaction is read at 450 nm. The amount of antibody bound to the solid phase serotonin is inversely proportional to the concentration of serotonin in the sample.
# Catechol-3,6-bis methyleneiminodiacetic acid (CBMIDA) (basic structure is an EDTA-like compound and the catechol ring is at the centre) synthesized at the Columbia University Chemistry division, and para-chlorophenylalanine (pCPA) obtained from Sigma Aldrich Corp. were used. Each compound was dissolved with twice molar solution of NaHCO3 in water and given to mouse orally at 250 and 500 mg/kg/dose.
# [1] = 300 mg/kg pCPA i.p. three times per week, 3 to 12 weeks of age, FIG. 7
compound,measurement,setting,value
"NC(Cc1ccc(Cl)cc1)C(=O)O (stereo not drawn) [pCPA, para-chlorophenylalanine]",bone mass in WT mice,"Lrp5−/− mice; 300 mg/kg pCPA i.p. three times per week, 3 to 12 weeks of age",without overtly affecting
same,gut TPH1 mRNA in Lrp5−/− mice,Lrp5−/− mice; [1],normalization
same,serum serotonin levels in Lrp5−/− mice,Lrp5−/− mice; [1],normalization; also recorded: normalizes
same,bone abnormalities (low bone phenotype) of Lrp5−/− mice,"Lrp5−/− mice; 300 mg/kg pCPA i.p. three times per week, 3 to 12 weeks of age, histomorphometry, FIG. 7B",corrected
same,Brain TPH2 mRNA levels,"Lrp5−/− mice; treated mice, 300 mg/kg pCPA i.p.",not affected
same,serotonin in the brain,serotonin in the brain; 250 mg/kg orally,did not decrease
same,crossing of the blood brain barrier,serotonin in the brain; at the amounts used (250 mg/kg),did not cross
same,reduction of peripheral serotonin measured in serum,"peripheral serotonin; 250 mg/kg orally twice in 20 hours, 4 week old mice",~50%
same,serum serotonin levels decreased to % below normal range,"peripheral serotonin; pCPA used as control, oral, FIG. 11",> 60%
